Test results from US11427567B2, “Imidazolyl pyrimidinylamine compounds as CDK2 inhibitors” (Incyte Corporation, priority 2019, dated 2022).

target: CDK2/Cyclin E1 (Homo sapiens (Human), UniProt P24941); assay: CDK2/Cyclin E1 HTRF enzyme activity assay (Example A); assay type: biochemical; settings: 1 mM ATP
Procedure: Assays were conducted in white 384-well polystyrene plates in a final reaction volume of 8 μL. […] HTRF signals were read after 1 hour at room temperature on a PHERAstar FS plate reader (BMG Labtech). Data was analyzed with IDBS XLFit and GraphPad Prism 5.0 software using a three or four parameter dose response curve to determine IC50 for each compound.

IC50, ≤ 50 nM:
CC(C)(O)Cn1cnc(-c2nc(NC3CCN(S(=O)(=O)C4CC4)CC3)ncc2C(F)(F)F)c1 [Example 30, 1-(4-(2-((1-(Cyclopropylsulfonyl)piperidin-4-yl)amino)-5-(trifluoromethyl)pyrimidin-4-yl)-1H-imidazol-1-yl)-2-methylpropan-2-ol]
COc1nccc(-n2cc(-c3nc(N[C@H]4CCN(S(C)(=O)=O)C[C@H]4F)ncc3C(F)(F)F)nc2C)c1F [Example 311, N-((3R,4S)-3-Fluoro-1-(methylsulfonyl)piperidin-4-yl)-4-(1-(3-fluoro-2-methoxypyridin-4-yl)-2-methyl-1H-imidazol-4-yl)-5-(trifluoromethyl)pyrimidin-2-amine]
CS(=O)(=O)N1CCC(Nc2ncc(C(F)(F)F)c(-c3cn(-c4ccccc4F)c(Br)n3)n2)CC1 [Example 461, 4-(2-Bromo-1-(2-fluorophenyl)-1H-imidazol-4-yl)-N-(1-(methylsulfonyl)piperidin-4-yl)-5-(trifluoromethyl)pyrimidin-2-amine]
Cc1nc(-c2nc(NC3CCN(S(C)(=O)=O)CC3)ncc2C(F)(F)F)cn1-c1ccc(-c2ccnn2C)cc1F [Example 129, 4-(1-(2-Fluoro-4-(1-methyl-1H-pyrazol-5-yl)phenyl)-2-methyl-1H-imidazol-4-yl)-N-(1-(methylsulfonyl)-piperidin-4-yl)-5-(trifluoromethyl)-pyrimidin-2-amine]
CS(=O)(=O)N1CCC(Nc2ncc(C(F)(F)F)c(-c3cn(-c4ccc(CNCC#N)cc4Cl)cn3)n2)CC1 [Example 187, 2-((3-Chloro-4-(4-(2-((1-(methylsulfonyl)-piperidin-4-yl)amino)-5-(trifluoromethyl)-pyrimidin-4-yl)-1H-imidazol-1-yl)benzyl)-amino)acetonitrile]
CCS(=O)(=O)N1CCC(Nc2ncc(C(F)(F)F)c(-c3cn(CC(F)F)cn3)n2)CC1 [Example 328, 4-(1-(2,2-Difluoroethyl)-1H-imidazol-4-yl)-N-(1-(ethylsulfonyl)piperidin-4-yl)-5-(trifluoromethyl)pyrimidin-2-amine]
CCN(C)CCCc1ccc(-n2cc(-c3nc(NC4CCN(S(C)(=O)=O)CC4)ncc3C(F)(F)F)nc2C)c(F)c1 [Example 460, 4-(1-(4-(3-(Ethyl(methyl)amino)propyl)-2-fluorophenyl)-2-methyl-1H-imidazol-4-yl)-N-(1-(methylsulfonyl)piperidin-4-yl)-5-(trifluoromethyl)pyrimidin-2-amine]
Cc1nc(-c2nc(NC3CCN(S(C)(=O)=O)CC3)ncc2C(F)(F)F)cn1-c1ccnc(C#N)c1F [Example 309, 3-Fluoro-4-(2-methyl-4-(2-((1-(methylsulfonyl)piperidin-4-yl)amino)-5-(trifluoromethyl)pyrimidin-4-yl)-1H-imidazol-1-yl)picolinonitrile]
CCN(C)Cc1ccc(-n2cnc(-c3nc(NC4CCN(S(C)(=O)=O)CC4)ncc3C(F)(F)F)c2)c(Cl)c1 [Example 192]
CS(=O)(=O)N1CCC(Nc2ncc(C(F)(F)F)c(-c3cn(-c4cccc(-c5ccnc(N)c5)c4Cl)cn3)n2)CC1 [Example 96, 4-(1-(3-(2-Aminopyridin-4-yl)-2-chlorophenyl)-1H-imidazol-4-yl)-N-(1-(methylsulfonyl)piperidin-4-yl)-5-(trifluoromethyl)pyrimidin-2-amine]
Cc1nc(CN2CCC2)ccc1-n1cnc(-c2nc(NC3CCN(S(C)(=O)=O)CC3)ncc2C(F)(F)F)c1 [Example 252, 4-(1-(6-(Azetidin-1-ylmethyl)-2-methylpyridin-3-yl)-1H-imidazol-4-yl)-N-(1-(methylsulfonyl)piperidin-4-yl)-5-(trifluoromethyl)pyrimidin-2-amine]
Cc1nc(-c2nc(NC3CCN(S(C)(=O)=O)CC3)ncc2C(F)(F)F)cn1-c1ccc(CN2CC(C)(O)C2)cc1F [Example 354, 1-(3-Fluoro-4-(2-methyl-4-(2-((1-(methylsulfonyl)piperidin-4-yl)amino)-5-(trifluoromethyl)pyrimidin-4-yl)-1H-imidazol-1-yl)benzyl)-3-methylazetidin-3-ol]
CC(C)NCc1cc(F)c(-n2cnc(-c3nc(N[C@H]4CCN(S(C)(=O)=O)C[C@H]4F)ncc3C(F)(F)F)c2)c(F)c1 [Example 386, 4-(1-(2,6-Difluoro-4-((isopropylamino)methyl)phenyl)-1H-imidazol-4-yl)-N-((3R,4S)-3-fluoro-1-(methylsulfonyl)piperidin-4-yl)-5-(trifluoromethyl)pyrimidin-2-amine]
CS(=O)(=O)N1CCC(Nc2ncc(C(F)(F)F)c(-c3cn(-c4cccc(CN5CC[C@H](O)C5)c4Cl)cn3)n2)CC1 [Example 365, (S)-1-(2-Chloro-3-(4-(2-((1-(methylsulfonyl)piperidin-4-yl)amino)-5-(trifluoromethyl)pyrimi-din-4-yl)-1H-imidazol-1-yl)benzyl)pyrrolidin-3-ol]
CC(C#N)Oc1ccc(-n2cnc(-c3nc(NC4CCN(S(C)(=O)=O)CC4)ncc3C(F)(F)F)c2)c(C(F)(F)F)n1 (stereo not shown) [Example 74, 2-((5-(4-(2-((1-(Methylsulfonyl)piperidin-4-yl)amino)-5-(trifluoromethyl)pyrimidin-4-yl)-1H-imidazol-1-yl)-6-(trifluoromethyl)pyridin-2-yl)oxy)propanenitrile]
CCN(CC)Cc1ccc(-n2cnc(-c3nc(NC4CCN(S(C)(=O)=O)CC4)ncc3C(F)(F)F)c2)c(C(F)(F)F)c1 [Example 258, 4-(1-(4-((Diethylamino)methyl)-2-(trifluoromethyl)phenyl)-1H-imidazol-4-yl)-N-(1-(methylsulfonyl)piperidin-4-yl)-5-(trifluoromethyl)pyrimidin-2-amine]
Cc1nc(-c2nc(N[C@H]3CCN(S(C)(=O)=O)C[C@H]3F)ncc2C(F)(F)F)cn1-c1ccc(CN2CCCC2)cc1F [Example 407, N-((3R,4S)-3-Fluoro-1-(methylsulfonyl)piperidin-4-yl)-4-(1-(2-fluoro-4-(pyrrolidin-1-ylmethyl)phenyl)-2-methyl-1H-imidazol-4-yl)-5-(trifluoromethyl)pyrimidin-2-amine]
CS(=O)(=O)N1CCC(Nc2ncc(C(F)(F)F)c(-c3cn(-c4ccc5nccnc5c4C#N)cn3)n2)CC1 [Example 167, 6-(4-(2-((1-(Methylsulfonyl)piperidin-4-yl)amino)-5-(trifluoromethyl)pyrimidin-4-yl)-1H-imidazol-1-yl)quinoxaline-5-carbonitrile]
CS(=O)(=O)N1CC[C@@H](Nc2ncc(C(F)(F)F)c(-c3cn(-c4ccc(CN5CCC5)cc4Cl)cn3)n2)[C@H](F)C1 [Example 399, 4-(1-(4-(Azetidin-1-ylmethyl)-2-chlorophenyl)-1H-imidazol-4-yl)-N-((3R,4R)-3-fluoro-1-(methylsulfonyl)piperidin-4-yl)-5-(trifluoromethyl)pyrimidin-2-amine]
CS(=O)(=O)N1CCC(Nc2ncc(C(F)(F)F)c(-c3cn(-c4c(F)cc(CNC5CC5)cc4F)cn3)n2)CC1 [Example 347, 4-(1-(4-((Cyclopropylamino)methyl)-2,6-difluorophenyl)-1H-imidazol-4-yl)-N-(1-(methylsulfonyl)piperidin-4-yl)-5-(trifluoromethyl)pyrimidin-2-amine]
CNCc1ccc(-n2cnc(-c3nc(NC4CCN(S(C)(=O)=O)CC4)ncc3C(F)(F)F)c2)c(F)c1 [Example 266, 4-(1-(2-Fluoro-4-((methylamino)methyl)phenyl)-1H-imidazol-4-yl)-N-(1-(methylsulfonyl)piperidin-4-yl)-5-(trifluoromethyl)pyrimidin-2-amine]
CS(=O)(=O)N1CCC(Nc2ncc(C(F)(F)F)c(-c3cn(-c4ccc(CN5CC6CC5CO6)cc4Cl)cn3)n2)CC1 (stereo not shown) [Example 213]
CNC(=O)c1ccc(-n2cnc(-c3nc(NC4CCN(S(C)(=O)=O)CC4)ncc3C(F)(F)F)c2)c(C)n1 [Example 132, N,6-Dimethyl-5-(4-(2-((1-(methyl-sulfonyl)piperidin-4-yl)amino)-5-(trifluoromethyl)-pyrimidin-4-yl)-1H-imidazol-1-yl)picolinamide]
CS(=O)(=O)N1CCC(Nc2ncc(C(F)(F)F)c(-c3cn(-c4ccc(CN5CCOC5=O)cc4Cl)cn3)n2)CC1 [Example 441, 3-(3-Chloro-4-(4-(2-((1-(methylsulfonyl)piperidin-4-yl)amino)-5-(trifluoromethyl)pyrimidin-4-yl)-1H-imidazol-1-yl)benzyl)oxazolidin-2-one]
CC1(O)CN(Cc2ccc(-n3cnc(-c4nc(NC5CCN(S(C)(=O)=O)CC5)ncc4C(F)(F)F)c3)c(Cl)c2)C1 [Example 194, 1-(3-Chloro-4-(4-(2-((1-(methylsulfonyl)-piperidin-4-yl)amino)-5-(trifluoromethyl)-pyrimidin-4-yl)-1H-imidazol-1-yl)benzyl)-3-methylazetidin-3-ol]
CS(=O)(=O)N1CCC(Nc2ncc(C(F)(F)F)c(-c3cn(-c4cccc(CN5CC[C@H](C#N)C5)c4C(F)(F)F)cn3)n2)CC1 [Example 471, (S)-1-(3-(4-(2-((1-(Methylsulfonyl)piperidin-4-yl)amino)-5-(trifluoromethyl)pyrimidin-4-yl)-1H-imidazol-1-yl)-2-(trifluoromethyl)benzyl)pyrrolidine-3-carbonitrile]
Cn1nncc1-c1ccc(-n2cnc(-c3nc(NC4CCN(S(C)(=O)=O)CC4)ncc3C(F)(F)F)c2)c(Cl)c1 [Example 122, 4-(1-(2-Chloro-4-(1-methyl-1H-1,2,3-triazol-5-yl)phenyl)-1H-imidazol-4-yl)-N-(1-(methyl-sulfonyl)piperidin-4-yl)-5-(trifluoro-methyl)pyrimidin-2-amine]
CS(=O)(=O)N1CCC(Nc2ncc(C(F)(F)F)c(-c3cn(-c4cnccc4C(F)(F)F)cn3)n2)CC1 [Example 66, N-(1-(Methylsulfonyl)piperidin-4-yl)-5-(trifluoromethyl)-4-(1-(4-(trifluoromethyl)pyridin-3-yl)-1H-imidazol-4-yl)pyrimidin-2-amine]
